# Assays:
# [1] = test system: mitochondria of triticale protoplasts; experiment: qRT-PCR of gfp mRNA, protoplasts transfected with pWMaadA16GFP; assay type: cell-based; conditions: gfp reporter construct
# Description: FIG. 19 is a plot showing the level of expression (fold increase, average of 4 replicates) of GFP in triticale protoplasts transfected with the pWMaadA16GFP plasmid in the presence of mTP1 (SEQ ID NO: 1), mTP2 (SEQ ID NO: 2), mTP3 (SEQ ID NO: 3), mTP4 (SEQ ID NO: 4) or mTP5 (SEQ ID NO: 5) compared to the level of expression (fold increase) of the internal control elongation factor 1a (EF1a), as measured by quantitative real time PCR of mRNA levels; and
# Wheat mitochondrial aadA16GFP reporter plasmid (pWMaadA16GFP, FIG. 11) is a 4587 base pair wheat specific mitochondrial transformation vector, which targets insertions into the fourth repeat region between the trnfM and rm18 gene cluster which is repeated three times in the Triticum aestivum mitochondrial genome. The insertion site is in the Triticum aestivum mitochondrial genome at nucleotides 300805-300878 and 300880-302834 (GenBank accession No. AP008982.1). A multiple cloning site is introduced following the tmfM target insertion sequence. The selection marker gene is an organelle codon specific aad-gfp fusion gene, which facilitates a dual selection method of spectinomycin resistance through an aadA derivative and visual detection by GFP fluorescence (GenBank accession No. ABX39486; Khan and Maliga, Nat. Biotechnol. (1999 September) 17(9): 910-5). The selection marker gene is driven by the Triticum aestivum mitochondrial atpA gene promoter (GenBank accession No. X54387.1). The aad-gfp fusion gene is terminated with the TpsbA terminator sequence derived from the Triticum aestivum mitochondrial genome at nucleotides 62871-62565 (GenBank accession No. AP008982.1).
# The dsDNA construct (pWMaadA16GFP for mitochondrial expression or pWCaadA16GFP for expression in chloroplasts) is combined with the mTP (for mitochondrial expression) or cTP (for expression in chloroplasts) in a final volume of 100 μl of CPW solution. For experiments using mTP1 (SEQ ID NO: 1), mTP2 (SEQ ID NO: 2), mTP3 (SEQ ID NO: 3), or mTP5 (SEQ ID NO: 5), peptides (scaled up from 100 ng, at four times the concentration needed to cause a DNA shift in the gel mobility shift assay (Table 7)) are combined with the pWMaadA16GFP construct (5 μg). For experiments using the remaining oTPs, peptides (30 μg) are combined with the appropriate dsDNA construct (1.5 μg). The mixture is incubated for 10 minutes at room temperature, then incubated with isolated triticale mesophyll protoplasts (500 μl, 10^6 protoplasts/ml, prepared as described in Example 2) for 1 h in the dark at room temperature. CPW solution (500 μl) is added and the mixture is incubated in the dark for 24 h. The cells are imaged using confocal microscopy, as described in Example 2, using MitoTracker® Orange staining to visualize mitochondria and chlorophyll autofluorescence to visualize chloroplasts.
# cDNA is generated using a First Strand Synthesis kit (Invitrogen). RNA (1 μg) is added to each sample and the manufacturer's protocol for synthesis followed, with the exception that the volume of the reaction mixture is increased from 20 μl to 30 μl. A negRT sample containing all reagents but no RNA is included in the cDNA synthesis as a negative control.
# Standard curves are generated for both elongation factor 1a (EF1a) (internal control) and green fluorescent protein (GFP) (test) genes. […]
# Real time PCR reactions are performed using QuantiTect™ SYBR™ Green PCR Master Mix (Qiagen) in a 20 μl reaction volume. […]
# [2] = test system: MG (bovine mammary gland) cells; experiment: Uptake of labeled peptides by MG cells, photometric cell imaging; assay type: cell-based; conditions: for Average concentration of labeled peptide measured in cells, MG: cells exposed to labeled peptide at 17 μM; for Photometric Cell Imaging (average counts/sec) MG: 1 hr, background about 1×10^5 counts/sec
# Description: MG cells are cultured in Dulbecco's Modified Eagle Medium (DMEM) containing 20% (v/v) fetal bovine serum (FBS) and 50 μg/ml gentamycin at 37° C. in a 95% humidified atmosphere containing 5% CO2. The cells are grown in Falcon™ 25 cm^2 or 75 cm^2 cell culture flasks until they reach confluency, then are detached with 0.25% trypsin and 0.02% EDTA and washed with DMEM.
# Preparations used for photometric cell imaging are prepared by adding 1000 cells to a Nunc coverglass chamber (2.5 cm^2). Cells are cultured as described above for 3 to 7 days. The cell monolayers are rinsed three times with epithelial cell saline (pH 7.4).
# Varying concentrations of fluoresceinated mTPs (100 μM) are added to epithelial cell saline to obtain a final working volume of 400 μl. Final concentrations added to the Caco-2, F1112 and MG cell monolayers as described above are 17 μM, 9 μM and 4 μM. Cells are incubated with the peptides for 1 hr in the dark at 37° C. in a 95% humidified atmosphere containing 5% CO2. At the end of the incubation period, the cell monolayer is rinsed three times with epithelial cell saline and 500 μl of epithelial cell saline is added.
# Uptake of labeled peptides by cells is quantified using a photometric detector/cell-imaging system (PTI). An excitation scan is run to determine if uptake has occurred as indicated by peaks at the appropriate wavelengths and if the amount changes in a dose-dependent manner compared to unlabeled cells. A time-based scan is then performed at the optimal excitation and emission wavelength to quantify total uptake, using about 20 cells/view/replicate.
Sequence,GFP expression by mitochondria confirmed by qRT-PCR [1],"Average concentration of labeled peptide measured in cells, MG [2] [nm]",Photometric Cell Imaging (average counts/sec) MG ([2]; labeled peptide 4 μM) [counts/sec],Photometric Cell Imaging (average counts/sec) MG ([2]; labeled peptide 9 μM) [counts/sec],Photometric Cell Imaging (average counts/sec) MG ([2]; labeled peptide 17 μM) [counts/sec]
MAAWMRSLFSPLKKLWIRMH (Zea mays) [mTP2],GFP is expressed,62,140000,160000,1500000
MWWRRSRTNSLRYT (listed as Arabidopsis thaliana) [mTP4],GFP is expressed,58,430000,1200000,1400000
MLFRLRRSVRLRGLLA (listed as Arabidopsis thaliana) [mTP5],GFP is expressed,60,440000,1400000,1600000
MFSYLPRYPLRAASARALVRATRPSYRSALLRYQ (listed as Triticum aestivum) [mTP1],GFP is expressed,78,400000,1800000,1900000
MKLLWRLILSRKW (listed as Arabidopsis thaliana) [mTP3],GFP is expressed,62,430000,1000000,1500000
